Test results published in PubChem BioAssay AID2060626 (Molecular Pharmacology Branch, DTP, NCI, 2025).
Values joined by “and” are separate entries in the source; they are usually repeats but may differ in a detail not shown here. Equal values may be shown once.

Test system: 168753-222-R-J1-PDC complex spheroid viability
Assay: Anticancer human tumor 168753-222-R-J1-PDC patient-derived bladder carcinoma cell line growth inhibition [CLK]
Settings: for IC50: curve of first compound; for viability, T/C: stronger effect = lower value
Method in brief: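 Multi-cell-type spheroids combined patient-derived tumor cells with HUVEC endothelial cells and human mesenchymal stem cells. Paired agents were dosed in half-log steps down from about clinical Cmax, or from 10 microM where Cmax was unknown.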

[1] = second compound 0.0316 µM, first compound 0.0316 µM
[2] = second compound 0.0316 µM, first compound 0.1 µM
[3] = second compound 0.0316 µM, first compound 0.316 µM
[4] = second compound 0.0316 µM, first compound 1 µM
[5] = second compound 0.0316 µM, first compound 3.16 µM
[6] = second compound 0.0316 µM, first compound 10 µM
[7] = second compound 0.1 µM, first compound 0.0316 µM
[8] = second compound 0.1 µM, first compound 0.1 µM
[9] = second compound 0.1 µM, first compound 0.316 µM
[10] = second compound 0.1 µM, first compound 1 µM
[11] = second compound 0.1 µM, first compound 3.16 µM
[12] = second compound 0.1 µM, first compound 10 µM
[13] = second compound 0.316 µM, first compound 0.0316 µM
[14] = second compound 0.316 µM, first compound 0.1 µM
[15] = second compound 0.316 µM, first compound 0.316 µM
[16] = second compound 0.316 µM, first compound 1 µM
[17] = second compound 0.316 µM, first compound 3.16 µM
[18] = second compound 0.316 µM, first compound 10 µM
[19] = second compound 1 µM, first compound 0.0316 µM
[20] = second compound 1 µM, first compound 0.1 µM
[21] = second compound 1 µM, first compound 0.316 µM
[22] = second compound 1 µM, first compound 1 µM
[23] = second compound 1 µM, first compound 3.16 µM
[24] = second compound 1 µM, first compound 10 µM
[25] = second compound 3.16 µM, first compound 0.0316 µM
[26] = second compound 3.16 µM, first compound 0.1 µM
[27] = second compound 3.16 µM, first compound 0.316 µM
[28] = second compound 3.16 µM, first compound 1 µM
[29] = second compound 3.16 µM, first compound 3.16 µM
[30] = second compound 3.16 µM, first compound 10 µM
[31] = second compound 10 µM, first compound 0.0316 µM
[32] = second compound 10 µM, first compound 0.1 µM
[33] = second compound 10 µM, first compound 0.316 µM
[34] = second compound 10 µM, first compound 1 µM
[35] = second compound 10 µM, first compound 3.16 µM
[36] = second compound 10 µM, first compound 10 µM
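Further: viability measured after seven days of drug exposure.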
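Wherever viability, T/C is given: luminescence signal used as surrogate for viable cell amount; 100% = DMSO vehicle control wells.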

Compound: O=C(c1cc(Cc2n[nH]c(=O)c3ccccc23)ccc1F)N1CCN(C(=O)C2CC2)CC1 + CN1CCN(c2cc(C(=O)Nc3cc4cc(-c5cnn(C)c5)ccc4cn3)ccn2)CC1
- IC50 (second compound 0.0316 µM): > 10000 nM
- IC50 (second compound 0.1 µM): 424 nM
- IC50 (second compound 0.316 µM): < 31.6 nM
- IC50 (second compound 1 µM): < 31.6 nM
- IC50 (second compound 3.16 µM): < 31.6 nM
- IC50 (second compound 10 µM): < 31.6 nM
- viability, T/C [1]: 73.3%
- viability, T/C [2]: 75.6%
- viability, T/C [3]: 72.5%
- viability, T/C [4]: 88.2%
- viability, T/C [5]: 73.6%
- viability, T/C [6]: 77.8%
- viability, T/C [7]: 45.6%
- viability, T/C [8]: 67.2%
- viability, T/C [9]: 52.5%
- viability, T/C [10]: 40.3%
- viability, T/C [11]: 31.5%
- viability, T/C [12]: 40.1%
- viability, T/C [13]: 10.2%
- viability, T/C [14]: 8.85%
- viability, T/C [15]: 8.61%
- viability, T/C [16]: 7.84%
- viability, T/C [17]: 9.11%
- viability, T/C [18]: 10.2%
- viability, T/C [19]: 0.19%
- viability, T/C [20]: 0.34%
- viability, T/C [21]: 0.16%
- viability, T/C [22]: 0.63%
- viability, T/C [23]: 0.66%
- viability, T/C [24]: 0.35%
- viability, T/C [25]: 0.24%
- viability, T/C [26]: 0.12%
- viability, T/C [27]: 0.18%
- viability, T/C [28]: 0.08%
- viability, T/C [29]: 0.96%
- viability, T/C [30]: 0.39%
- viability, T/C [31]: 0.6%
- viability, T/C [32]: 0.32%
- viability, T/C [33]: 0.35%
- viability, T/C [34]: 0.18%
- viability, T/C [35]: 0.41%
- viability, T/C [36]: 1.31%

Compound: C#Cc1c(F)ccc2cc(O)cc(-c3ncc4c(N5CC6CCC(C5)N6)nc(OCC56CCCN5CC(F)C6)nc4c3F)c12 (centres undefined) + CN1CCN(c2cc(C(=O)Nc3cc4cc(-c5cnn(C)c5)ccc4cn3)ccn2)CC1
- IC50 (second compound 0.0316 µM): > 10000 nM
- IC50 (second compound 0.1 µM): 1850 nM
- IC50 (second compound 0.316 µM): < 31.6 nM
- IC50 (second compound 1 µM): < 31.6 nM
- IC50 (second compound 3.16 µM): < 31.6 nM
- IC50 (second compound 10 µM): < 31.6 nM
- viability, T/C [1]: 105%
- viability, T/C [2]: 107%
- viability, T/C [3]: 101%
- viability, T/C [4]: 103%
- viability, T/C [5]: 96.4%
- viability, T/C [6]: 70.3%
- viability, T/C [7]: 77.7%
- viability, T/C [8]: 64.7%
- viability, T/C [9]: 63.9%
- viability, T/C [10]: 64.2%
- viability, T/C [11]: 37.4%
- viability, T/C [12]: 38%
- viability, T/C [13]: 14.7%
- viability, T/C [14]: 14.6%
- viability, T/C [15]: 11.8%
- viability, T/C [16]: 12%
- viability, T/C [17]: 12.1%
- viability, T/C [18]: 7.39%
- viability, T/C [19]: 0.54%
- viability, T/C [20]: 0.65%
- viability, T/C [21]: 1.92%
- viability, T/C [22]: 0.88%
- viability, T/C [23]: 0.75%
- viability, T/C [24]: 0.34%
- viability, T/C [25]: 2.41%
- viability, T/C [26]: 0.59%
- viability, T/C [27]: 1.48%
- viability, T/C [28]: 0.13%
- viability, T/C [29]: 0.39%
- viability, T/C [30]: 0.22%
- viability, T/C [31]: 0.18%
- viability, T/C [32]: 0.32%
- viability, T/C [33]: 0.39%
- viability, T/C [34]: 0.2%
- viability, T/C [35]: 0.57%
- viability, T/C [36]: 3.73%

Compound: CC1COCCN1c1cc(C2(S(C)(=N)=O)CC2)nc(-c2ccnc3[nH]ccc23)n1 (centres undefined) + CN1CCN(c2cc(C(=O)Nc3cc4cc(-c5cnn(C)c5)ccc4cn3)ccn2)CC1
- IC50 (second compound 0.0316 µM): 1750 nM
- IC50 (second compound 0.1 µM): 115 nM
- IC50 (second compound 0.316 µM): < 31.6 nM
- IC50 (second compound 1 µM): < 31.6 nM
- IC50 (second compound 3.16 µM): < 31.6 nM
- IC50 (second compound 10 µM): < 31.6 nM
- viability, T/C [1]: 47.2%
- viability, T/C [2]: 74.3%
- viability, T/C [3]: 67.3%
- viability, T/C [4]: 89.2%
- viability, T/C [5]: 29.4%
- viability, T/C [6]: 26.9%
- viability, T/C [7]: 61.5%
- viability, T/C [8]: 53.8%
- viability, T/C [9]: 22%
- viability, T/C [10]: 30.5%
- viability, T/C [11]: 15.8%
- viability, T/C [12]: 15.1%
- viability, T/C [13]: 10.6%
- viability, T/C [14]: 9.28%
- viability, T/C [15]: 9%
- viability, T/C [16]: 7.71%
- viability, T/C [17]: 7.38%
- viability, T/C [18]: 4.64%
- viability, T/C [19]: 0.24%
- viability, T/C [20]: 0.3%
- viability, T/C [21]: 0.2%
- viability, T/C [22]: 0.19%
- viability, T/C [23]: 0.18%
- viability, T/C [24]: 0.82%
- viability, T/C [25]: 0.19%
- viability, T/C [26]: 1.51%
- viability, T/C [27]: 1.3%
- viability, T/C [28]: 0.18%
- viability, T/C [29]: 0.26%
- viability, T/C [30]: 1.69%
- viability, T/C [31]: 0.23%
- viability, T/C [32]: 0.28%
- viability, T/C [33]: 1.49%
- viability, T/C [34]: 0.34%
- viability, T/C [35]: 0.56%
- viability, T/C [36]: 1.29%

Compound: COc1cccc2c1C(=O)c1c(O)c3c(c(O)c1C2=O)CC(O)(C(=O)CO)CC3OC1CC(N)C(O)C(C)O1 (centres undefined) + CN1CCN(c2cc(C(=O)Nc3cc4cc(-c5cnn(C)c5)ccc4cn3)ccn2)CC1
- IC50 (second compound 0.0316 µM): 33.1 nM
- IC50 (second compound 0.1 µM): < 31.6 nM
- IC50 (second compound 0.316 µM): < 31.6 nM
- IC50 (second compound 1 µM): < 31.6 nM
- IC50 (second compound 3.16 µM): < 31.6 nM
- IC50 (second compound 10 µM): < 31.6 nM
- viability, T/C [1]: 51.4%
- viability, T/C [2]: 31.8%
- viability, T/C [3]: 23.1%
- viability, T/C [4]: 6.97%
- viability, T/C [5]: 7.48%
- viability, T/C [6]: 0.18%
- viability, T/C [7]: 38.4%
- viability, T/C [8]: 15.5%
- viability, T/C [9]: 10.5%
- viability, T/C [10]: 7.96%
- viability, T/C [11]: 5.89%
- viability, T/C [12]: 0.16%
- viability, T/C [13]: 8.86%
- viability, T/C [14]: 8.74%
- viability, T/C [15]: 7.81%
- viability, T/C [16]: 6.39%
- viability, T/C [17]: 0.05%
- viability, T/C [18]: 0.05%
- viability, T/C [19]: 0.13%
- viability, T/C [20]: 0.11%
- viability, T/C [21]: 0.17%
- viability, T/C [22]: 0.05%
- viability, T/C [23]: 0.48%
- viability, T/C [24]: 1.29%
- viability, T/C [25]: 1.25%
- viability, T/C [26]: 0.09%
- viability, T/C [27]: 0.07%
- viability, T/C [28]: 0.05%
- viability, T/C [29]: 0.27%
- viability, T/C [30]: 0.95%
- viability, T/C [31]: 0.04%
- viability, T/C [32]: 0.26%
- viability, T/C [33]: 0.34%
- viability, T/C [34]: 0.08%
- viability, T/C [35]: 0.95%
- viability, T/C [36]: 0.95%

Compound: CCN1CCN(Cc2ccc(Nc3ncc(F)c(-c4cc(F)c5nc(C)n(C(C)C)c5c4)n3)nc2)CC1
- viability, T/C (compound 0.00316 µM): 97.4% and 95.4%
- viability, T/C (compound 0.01 µM): 80.3% and 94%
- viability, T/C (compound 0.0316 µM): 37.7% and 78.4%
- viability, T/C (compound 0.1 µM): 44.1% and 77.1%
- viability, T/C (compound 0.316 µM): 25.1% and 68.1%
- viability, T/C (compound 1 µM): 36.4% and 64.2%
